Data on one compound can be found in patent publication US20150306049A1, “IMMEDIATE RELEASE FORMULATIONS OF CINACALCET” (K.H.S. PHARMA HOLDING GMBH, priority 2012, published 2015).

Where two headings read alike, the source gives them in different places.

For the series the following is noted: for % Dissolution: 200 mg in 900 ml 0.1 N HCl, 37.0°C, 75 rpm. As to the method: 200mg of cinacalcet HCl of different D50 values was dropped into a vessel containing 900 ml of dissolution medium (0.1 N HCl) at 37.0+/−0.5° C. and stirred at 75 rpm.

With `C[C@@H](NCCCc1cccc(C(F)(F)F)c1)c1cccc2ccccc12.Cl` [cinacalcet HCl], the “solubility (dissolution) compared with larger particle sizes” value is recorded as “much lower solubility”. Further, the “% Dissolution” value (D50 = 20 μm, 0 min, D50 = 89 μm after 60 min set to 100%) was determined as 0%. The “% Dissolution” value (D50 = 20 μm, 15 min, D50 = 89 μm after 60 min set to 100%) was 24%. Besides, the “% Dissolution” value (D50 = 20 μm, 30 min, D50 = 89 μm after 60 min set to 100%) came to 52%. Moreover, the “% Dissolution” value (D50 = 20 μm, 45 min, D50 = 89 μm after 60 min set to 100%) is listed as 74%. Also, the “% Dissolution” value (D50 = 20 μm, 60 min, D50 = 89 μm after 60 min set to 100%) is reported as 86%. Also, under “D50 = 82 μm, 0 min, D50 = 89 μm after 60 min set to 100%”, the “% Dissolution” value is 0%. Further, the “% Dissolution” value (D50 = 82 μm, 15 min, D50 = 89 μm after 60 min set to 100%) is listed as 90%. Also, the “% Dissolution” value (D50 = 82 μm, 30 min, D50 = 89 μm after 60 min set to 100%) worked out at 96%. For the same compound, the “% Dissolution” value (D50 = 82 μm, 45 min, D50 = 89 μm after 60 min set to 100%) amounted to 98%. The “% Dissolution” value (D50 = 82 μm, 60 min, D50 = 89 μm after 60 min set to 100%) was 98%. Moreover, the “% Dissolution” value (D50 = 89 μm, 0 min, D50 = 89 μm after 60 min set to 100%) came to 0%. The “% Dissolution” value (D50 = 89 μm, 15 min, D50 = 89 μm after 60 min set to 100%) was 87%. For the same compound, where the note is “D50 = 89 μm, 30 min, D50 = 89 μm after 60 min set to 100%”, the “% Dissolution” value amounted to 98%. For the same compound, under “D50 = 89 μm, 45 min, D50 = 89 μm after 60 min set to 100%”, the “% Dissolution” value was found to be 99%. For the same compound, where the note is “D50 = 89 μm, 60 min, set to 100%”, the “% Dissolution” value is on record as 100%.
